{
  "source": "patent US20200231614A1",
  "about": "“PSMA TARGETED RADIOHALOGENATED UREAS FOR CANCER RADIOTHERAPY” (THE JOHNS HOPKINS UNIVERSITY, priority 2015, published 2020)",
  "key": {"[1]": {"test_system": "PSMA+(PIP) tumors and PSMA−(Flu) tumors", "assay_type": "in vivo", "settings": "3 to 19 days after single-bolus injection (20 μCi), PSMA+(PIP) vs PSMA−(Flu) tumors"}, "[2]": {"test_system": "PSMA positive cells", "assay": "In vitro radiotoxicity (cell kill)", "settings": "vs. free [^211At]astatide (FIG. 5B)"}, "[3]": {"test_system": "LNCaP cells", "assay": "Uptake by LNCaP cells in presence and absence of PSMA inhibitor", "settings": "2 h and 4 h, presence and absence of PSMA inhibitor 2-PSMA (FIG. 5A)"}, "[4]": {"test_system": "PSMA + PC-3 PiP and PSMA − PC-3 flu tumor xenografts", "settings": "for Biodistribution: PC-3 PiP: PSMA+ tumor xenograft; for Biodistribution: PC-3 flu: PSMA− tumor xenograft"}, "[5]": {"biological_target": "PSMA (Homo sapiens, UniProt Q04609)", "sequence (Q04609 whole entry)": "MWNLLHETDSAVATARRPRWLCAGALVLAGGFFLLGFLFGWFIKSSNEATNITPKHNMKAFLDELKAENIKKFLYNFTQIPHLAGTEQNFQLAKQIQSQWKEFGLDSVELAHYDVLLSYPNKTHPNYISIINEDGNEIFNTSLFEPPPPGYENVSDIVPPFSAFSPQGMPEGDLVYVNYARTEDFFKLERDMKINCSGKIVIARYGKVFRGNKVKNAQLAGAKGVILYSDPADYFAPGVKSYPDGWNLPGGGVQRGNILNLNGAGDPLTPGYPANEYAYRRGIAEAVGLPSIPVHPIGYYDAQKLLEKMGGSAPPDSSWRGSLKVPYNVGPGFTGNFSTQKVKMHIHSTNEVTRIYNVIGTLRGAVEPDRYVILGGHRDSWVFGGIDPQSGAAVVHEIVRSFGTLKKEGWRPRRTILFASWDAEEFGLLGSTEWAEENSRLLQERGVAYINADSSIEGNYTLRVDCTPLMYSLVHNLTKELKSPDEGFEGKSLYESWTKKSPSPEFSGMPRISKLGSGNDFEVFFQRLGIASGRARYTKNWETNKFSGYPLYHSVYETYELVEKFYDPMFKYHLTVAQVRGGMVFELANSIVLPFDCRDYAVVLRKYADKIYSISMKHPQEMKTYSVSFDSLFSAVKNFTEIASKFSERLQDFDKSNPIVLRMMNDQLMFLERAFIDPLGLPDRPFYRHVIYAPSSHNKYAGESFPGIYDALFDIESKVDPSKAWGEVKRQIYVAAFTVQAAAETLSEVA", "assay": "PSMA binding affinity (Ki)", "settings": "measured Ki, Table 11", "description": "Lysine glutamate ureas compounds for radiotherapy are disclosed in FIG. 2."}, "[6]": {"settings": "18 H post-injection, comparative Table 13"}},
  "note": "Read-outs that look alike come from different tables or passages of the source.",
  "data": [
    {"compound": "O=C(O)CC[C@H](NC(=O)NC(CCCCNC(=O)c1ccc([211At])cc1)C(=O)O)C(=O)O", "note": "(stereo partly drawn) [[^211At]YC-I-27, (2S)-2-(3-(1-Carboxy-5-(4-[^211At]asatatobenzamido)pentyl)ureido)pentanedioic Acid]", "values": [
      {"measurement": "Tumor growth inhibition", "setting": "[1]", "result": "PSMA Specific Tumor Growth Inhibition"},
      {"measurement": "Cell kill", "setting": "[2]", "result": "effectively kill cell relative to the untargeted alpha emitter"},
      {"measurement": "Uptake by LNCaP cells", "setting": "[3]", "result": "is blocked, indicating target (PSMA) specific binding"},
      {"measurement": "Biodistribution: Sm int.", "setting": "[4]; 1 H post-injection", "result": "3.67 ± 0.65", "unit": "% ID/g"},
      {"measurement": "Biodistribution: bladder", "setting": "[4]; 1 H post-injection", "result": "5.45 ± 2.57", "unit": "% ID/g"},
      {"measurement": "Biodistribution: blood", "setting": "[4]; 1 H post-injection", "result": "1.67 ± 0.32", "unit": "% ID/g"},
      {"measurement": "Biodistribution: heart", "setting": "[4]; 1 H post-injection", "result": "2.36 ± 0.48", "unit": "% ID/g"},
      {"measurement": "Biodistribution: kidney", "setting": "[4]; 1 H post-injection", "result": "71.5 ± 12.0", "unit": "% ID/g"},
      {"measurement": "Biodistribution: liver", "setting": "[4]; 1 H post-injection", "result": "2.11 ± 0.65", "unit": "% ID/g"},
      {"measurement": "Biodistribution: lung", "setting": "[4]; 1 H post-injection", "result": "5.82 ± 1.28", "unit": "% ID/g"},
      {"measurement": "Biodistribution: muscle", "setting": "[4]; 1 H post-injection", "result": "0.95 ± 0.15", "unit": "% ID/g"},
      {"measurement": "Biodistribution: spleen", "setting": "[4]; 1 H post-injection", "result": "29.2 ± 10.2", "unit": "% ID/g"},
      {"measurement": "Biodistribution: stomach", "setting": "[4]; 1 H post-injection", "result": "10.1 ± 1.66", "unit": "% ID/g"},
      {"measurement": "Biodistribution: thyroid", "setting": "[4]; 1 H post-injection", "result": "3.68 ± 1.10", "unit": "% ID/g"},
      {"measurement": "Biodistribution: Sm int.", "setting": "[4]; 2 H post-injection", "result": "2.08 ± 0.41", "unit": "% ID/g"},
      {"measurement": "Biodistribution: bladder", "setting": "[4]; 2 H post-injection", "result": "4.55 ± 0.86", "unit": "% ID/g"},
      {"measurement": "Biodistribution: blood", "setting": "[4]; 2 H post-injection", "result": "1.26 ± 0.15", "unit": "% ID/g"},
      {"measurement": "Biodistribution: heart", "setting": "[4]; 2 H post-injection", "result": "1.79 ± 0.31", "unit": "% ID/g"},
      {"measurement": "Biodistribution: kidney", "setting": "[4]; 2 H post-injection", "result": "60.2 ± 6.16", "unit": "% ID/g"},
      {"measurement": "Biodistribution: liver", "setting": "[4]; 2 H post-injection", "result": "1.58 ± 0.21", "unit": "% ID/g"},
      {"measurement": "Biodistribution: lung", "setting": "[4]; 2 H post-injection", "result": "6.30 ± 1.57", "unit": "% ID/g"},
      {"measurement": "Biodistribution: muscle", "setting": "[4]; 2 H post-injection", "result": "0.81 ± 0.12", "unit": "% ID/g"},
      {"measurement": "Biodistribution: spleen", "setting": "[4]; 2 H post-injection", "result": "20.3 ± 5.21", "unit": "% ID/g"},
      {"measurement": "Biodistribution: stomach", "setting": "[4]; 2 H post-injection", "result": "9.29 ± 2.86", "unit": "% ID/g"},
      {"measurement": "Biodistribution: thyroid", "setting": "[4]; 2 H post-injection", "result": "3.56 ± 0.95", "unit": "% ID/g"},
      {"measurement": "tumor/kidney ratio", "setting": "[4]; 2 H post-injection", "result": 0.3},
      {"measurement": "Biodistribution: Sm int.", "setting": "[4]; 4 H post-injection", "result": "1.85 ± 0.23", "unit": "% ID/g"},
      {"measurement": "Biodistribution: bladder", "setting": "[4]; 4 H post-injection", "result": "4.17 ± 0.74", "unit": "% ID/g"},
      {"measurement": "Biodistribution: blood", "setting": "[4]; 4 H post-injection", "result": "0.99 ± 0.12", "unit": "% ID/g"},
      {"measurement": "Biodistribution: heart", "setting": "[4]; 4 H post-injection", "result": "1.65 ± 0.39", "unit": "% ID/g"},
      {"measurement": "Biodistribution: kidney", "setting": "[4]; 4 H post-injection", "result": "60.2 ± 11.5", "unit": "% ID/g"},
      {"measurement": "Biodistribution: liver", "setting": "[4]; 4 H post-injection", "result": "1.63 ± 0.10", "unit": "% ID/g"},
      {"measurement": "Biodistribution: lung", "setting": "[4]; 4 H post-injection", "result": "5.54 ± 1.79", "unit": "% ID/g"},
      {"measurement": "Biodistribution: muscle", "setting": "[4]; 4 H post-injection", "result": "0.72 ± 0.14", "unit": "% ID/g"},
      {"measurement": "Biodistribution: spleen", "setting": "[4]; 4 H post-injection", "result": "20.3 ± 3.55", "unit": "% ID/g"},
      {"measurement": "Biodistribution: stomach", "setting": "[4]; 4 H post-injection", "result": "13.3 ± 3.12", "unit": "% ID/g"},
      {"measurement": "Biodistribution: thyroid", "setting": "[4]; 4 H post-injection", "result": "3.83 ± 1.18", "unit": "% ID/g"},
      {"measurement": "Biodistribution: Sm int.", "setting": "[4]; 18 H post-injection", "result": "1.08 ± 0.10", "unit": "% ID/g"},
      {"measurement": "Biodistribution: bladder", "setting": "[4]; 18 H post-injection", "result": "2.51 ± 0.39", "unit": "% ID/g"},
      {"measurement": "Biodistribution: blood", "setting": "[4]; 18 H post-injection", "result": "0.53 ± 0.05", "unit": "% ID/g"},
      {"measurement": "Biodistribution: heart", "setting": "[4]; 18 H post-injection", "result": "1.10 ± 0.16", "unit": "% ID/g"},
      {"measurement": "Biodistribution: kidney", "setting": "[4]; 18 H post-injection", "result": "57.4 ± 7.36", "unit": "% ID/g"},
      {"measurement": "Biodistribution: liver", "setting": "[4]; 18 H post-injection", "result": "0.82 ± 0.07", "unit": "% ID/g"},
      {"measurement": "Biodistribution: lung", "setting": "[4]; 18 H post-injection", "result": "3.61 ± 0.40", "unit": "% ID/g"},
      {"measurement": "Biodistribution: muscle", "setting": "[4]; 18 H post-injection", "result": "0.49 ± 0.27", "unit": "% ID/g"},
      {"measurement": "Biodistribution: spleen", "setting": "[4]; 18 H post-injection", "result": "8.01 ± 2.04", "unit": "% ID/g"},
      {"measurement": "Biodistribution: stomach", "setting": "[4]; 18 H post-injection", "result": "9.42 ± 3.04", "unit": "% ID/g"},
      {"measurement": "Biodistribution: thyroid", "setting": "[4]; 18 H post-injection", "result": "6.50 ± 1.97", "unit": "% ID/g"},
      {"measurement": "Non-target organ uptake: spleen", "setting": "[4]; [6]", "result": 8.0, "unit": "% D/g"},
      {"measurement": "Non-target organ uptake: stomach", "setting": "[4]; [6]", "result": 9.4, "unit": "% D/g"},
      {"measurement": "Non-target organ uptake: thyroid", "setting": "[4]; [6]", "result": 6.5, "unit": "% D/g"},
      {"measurement": "tumor/kidney ratio", "setting": "[4]; 21 H post-injection", "result": 0.5},
      {"measurement": "Biodistribution: PC-3 PiP", "setting": "[4]; 1 H post-injection", "result": "17.9 ± 2.98", "unit": "% ID/g"},
      {"measurement": "Biodistribution: PC-3 PiP", "setting": "[4]; 2 H post-injection", "result": "20.7 ± 3.42", "unit": "% ID/g"},
      {"measurement": "Biodistribution: PC-3 PiP", "setting": "[4]; 4 H post-injection", "result": "18.3 ± 2.90", "unit": "% ID/g"},
      {"measurement": "Biodistribution: PC-3 PiP", "setting": "[4]; 18 H post-injection", "result": "31.1 ± 9.78", "unit": "% ID/g"},
      {"measurement": "Biodistribution: PC-3 flu", "setting": "[4]; 1 H post-injection", "result": "2.18 ± 0.44", "unit": "% ID/g"},
      {"measurement": "Biodistribution: PC-3 flu", "setting": "[4]; 2 H post-injection", "result": "1.81 ± 0.27", "unit": "% ID/g"},
      {"measurement": "Biodistribution: PC-3 flu", "setting": "[4]; 4 H post-injection", "result": "1.53 ± 0.22", "unit": "% ID/g"},
      {"measurement": "Biodistribution: PC-3 flu", "setting": "[4]; 18 H post-injection", "result": "1.17 ± 0.20", "unit": "% ID/g"},
      {"measurement": "PSMA positive tumor uptake (in words)", "setting": "[4]; biodistributions of Tables 2, 3, 9, 10", "result": "demonstrated PSMA positive tumor uptake"}
    ]},
    {"compound": "O=C(O)CC[C@H](NC(=O)N[C@@H](CCC(=O)NCCc1ccc(I)cc1)C(=O)O)C(=O)O", "note": "[HS-549, (((5)-1-Carboxy-4-((4-iodophenethyl)amino)-4-oxobutyl)carbamoyl)-L-glutamic Acid]", "values": [
      {"measurement": "Ki", "setting": "[5]", "result": 10, "unit": "pM"}
    ]}
  ]
}
